The test concerns the target LSD1 (Homo sapiens, UniProt O60341). Put plainly: LSD1 fluorescence coupling enzyme assay (HRP/Amplex Red, H3(1-21)K4me2 peptide), 10-dose IC50. It is filed as biochemical. The note with it: 10 μM histone H3(1-21)K4me2 peptide substrate, 3-fold serial dilution from 100 μM. The text has this:
Assaying the inhibition of KDM1A can be determined in vitro, in cultured cells, and in animals. There are a variety of spectrophotometric methods to detect the results of demethylation of methylated lysines, viz., detecting the products of KDM1A demethylase oxidative activity on a peptide fragment of at least 18 amino acids representing the N-terminus of the histone H3 substrate that contains a monomethyl at the fourth lysine residue. Hydrogen peroxide, one product of the KDM1A demethylase reaction, reacts with horseradish peroxidase and dihydroxyphenoxazine (ADHP) to produce the fluorescent compound resorufin (excitation=530-560 nm: emission=590 nm). The KDM1A demethylase enzyme activity can be obtained from mammalian cells or tissues expressing KDM1A from an endogenous or recombinant gene and purified or assayed from a whole cell extract. These methods can be used to determine the concentration of the disclosed compounds can inhibit fifty percent of the enzyme activity (IC50).
Alternatively, the production of H2O2 during the KDM1A reaction can be detected fluometrically. In this system, the production of H2O2 is detected in the HDM assay buffer after exposure to substrate, co-factor and enzyme using ADHP (10-Acetyl-3, 7-dihydroxyphenoxazine) as a fluorogenic substrate for horse radish peroxidase (HRP). […] The florescent product is resorufin. Sensitivity can be as low as 10-15 M of target protein. The signal is read using a fluorescence microplate reader at excitation and emission wavelengths of 530-560 nm and 590 nm, respectively.
Compounds were tested in a 10-dose IC50 mode fluorescence coupling enzyme assay with 3-fold serial dilution in duplicate starting at 100 μM. The production of FAD-dependent H2O2 as a result of demethylase activity of LSD1 on 10 μM histone H3(1-21)K4me2 peptide substrate was measured by coupling with HRP and Amplex Red to yield resorufin (fluorescence measured at Ex/Em=535/590 nm on EnVision, Perkin Elmer).

Structures are written as SMILES. Bounds are passed on as bounds.

The molecule `N#Cc1ccc(-c2cc(NCC3CCCNCC3)nn2-c2ccc(N3CC[S+]([O-])CC3)cc2)cc1F` (centres unmarked) [Example 90, 4-(3-((Azepan-4-ylmethyl)amino)-1-(4-(1-oxidothiomorpholino)phenyl)-1H-pyrazol-5-yl)-2-fluorobenzonitrile 2,2,2-trifluoroacetate] showed a half-inhibitory concentration (IC50) of less than 500 nM.

`COC1CCN(c2ccc(-n3nc(NC[C@H]4CCC[C@H](N)C4)cc3-c3ccc(C#N)c(F)c3)c(F)c2)CC1` [Example 92, 4-(3-((((1S,3S)-3-aminocyclohexyl)methyl)amino)-1-(2-fluoro-4-(4-methoxypiperidin-1-yl)phenyl)-1H-pyrazol-5-yl)-2-fluorobenzonitrile 2,2,2-trifluoroacetate] displayed an IC50 of less than 500 nM.

As for `COC1CCN(c2ccc(-n3nc(NCC45CCN(CC4)CC5)cc3-c3ccc(C#N)c(F)c3)cc2)CC1` [Example 124, 2-Fluoro-4-(1-(4-(4-methoxypiperidin-1-yl)phenyl)-3-((quinuclidin-4-ylmethyl)amino)-1H-pyrazol-5-yl)benzo-nitrile 2,2,2-trifluoroacetate], the 50% inhibitory concentration (IC50) was less than 500 nM.

`N#Cc1ccc(-c2cc(NCC3CNCCO3)nn2-c2ccc(N3CCS(=O)(=O)CC3)cc2F)cc1F` (centres unmarked) [Example 108, 4-(1-(4-(1,1-dioxidothiomorpholino)-2-fluorophenyl)-3-((morpholin-2-ylmethyl)amino)-1H-pyrazol-5-yl)-2-fluorobenzonitrile 2,2,2-trifluoroacetate] gave an IC50 of less than 500 nM.

Regarding `COc1cc(N2CCN(C)C(=O)C2)ccc1-n1nc(NC[C@H]2CCC[C@H](N)C2)cc1-c1ccc(C#N)c(F)c1` [Example 117, 4-(3-((((1S,3S)-3-aminocyclohexyl)methyl)amino)-1-(2-methoxy-4-(4-methyl-3-oxopiperazin-1-yl)phenyl)-1H-pyrazol-5-yl)-2-fluorobenzonitrile], the IC50 was less than 500 nM.

In the case of `COC1(C)CCN(c2ccc(-n3nc(NCC45CCN(CC4)CC5)cc3-c3ccc(C#N)c(F)c3)cc2)CC1` [Example 125, 2-Fluoro-4-(1-(4-(4-methoxy-4-methylpiperidin-1-yl)phenyl)-3-((quinuclidin-4-ylmethyl)amino)-1H-pyrazol-5-yl)benzonitrile 2,2,2-trifluoroacetate], the IC50 is less than 500 nM.

`COc1ccc(-n2nc(NC[C@@H]3CCCNC3)cc2-c2ccc(C#N)c(F)c2)cc1` [Example 3R, (R)-2-fluoro-4-(1-(4-methoxyphenyl)-3-((piperidin-3-ylmethyl)amino)-1H-pyrazol-5-yl)benzonitrile]: the concentration for half-maximal inhibition (IC50) is less than 500 nM.

Take `N#Cc1ccc(-c2cc(NCC3CCCNCC3)nn2-c2ccc(N3CCS(=O)(=O)CC3)cc2F)cc1F` (centres unmarked) [Example 107, 4-(3-((azepan-4-ylmethyl)amino)-1-(4-(1,1-dioxidothiomorpholino)-2-fluorophenyl)-1H-pyrazol-5-yl)-2-fluorobenzonitrile]: the half-maximal inhibitory concentration (IC50) is less than 500 nM.

Molecule `COc1cc(N2CCC(C)(O)CC2)ccc1-n1nc(NC[C@H]2CCC[C@H](N)C2)cc1-c1ccc(C#N)c(F)c1` [Example 115, 4-(3-((((1S,3S)-3-aminocyclohexyl)methyl)amino)-1-(4-(4-hydroxy-4-methylpiperidin-1-yl)-2-methoxyphenyl)-1H-pyrazol-5-yl)-2-fluorobenzonitrile 2,2,2-trifluoroacetate] had an IC50 of 1000 to 10000 nM.

As for `COc1cc(N2CCC(OC)CC2)ccc1-n1nc(NC[C@H]2CCC[C@H](N)C2)cc1-c1ccc(C#N)c(F)c1` [Example 114, 4-(3-((((1S,3S)-3-aminocyclohexyl)methyl)amino)-1-(2-methoxy-4-(4-methoxypiperidin-1-yl)phenyl)-1H-pyrazol-5-yl)-2-fluorobenzonitrile 2,2,2-trifluoroacetate], the IC50 is less than 500 nM.

As to `COc1ccc(-n2nc(NC[C@H]3CCCNC3)cc2-c2ccc(C#N)c(F)c2)cc1` [Example 3S, (S)-2-fluoro-4-(1-(4-methoxyphenyl)-3-((piperidin-3-ylmethyl)amino)-1H-pyrazol-5-yl)benzonitrile], the IC50 is less than 500 nM.
